This is an account of results in US20230265104A1, “NOVEL HETEROCYCLIC COMPOUNDS” (PRISM BIOLAB CO., LTD., priority 2020, published 2023).

Structures are written as SMILES.

The test system of this assay is PANC-1 (human pancreatic cancer-derived cell line). The experiment in a line: MTS assay on Panc-1 (human pancreas carcinoma cell line). Type of assay: cell-based. The settings on record: 144 h; for IC50: PANC-1, MTS method, cell survival 6 days after exposure, 4-parameter logistic fit; for inhibition at 30 µM / inhibition at 0.625 µM / inhibition at 1 µM / inhibition at 10 µM: PANC-1, MTS, 6 days; for inhibition at 30 µM: read-out: Growth inhibition (%) 30 μM; for inhibition at 0.625 µM: read-out: Growth inhibition (%) 0.625 μM; for inhibition at 1 µM: read-out: Growth inhibition (%) 1 μM; for inhibition at 10 µM: read-out: Growth inhibition (%) 10 μM. On the procedure:
Experimental Example: MTS Assay on Panc-1 (Human Pancreas Carcinoma Cell Line) cell line name: PANC-1 derived from: human pancreas glandular cancer purchased from: ATCC product code: CRL-1469 proliferation medium: D-MEM+10% FBS culture environment: 37° C., 5% CO2 seeding density: 5.0×10^5 cells/25 cm^2 solvent control substance: DMSO (HYBRI-MAX®, Sigma-Aldrich Corp.) test substance: Example compound (ID-1-ID-13) A DMSO solution of the test substance was prepared by serially diluting (common ratio 2) each test substance with DMSO.
A solvent control substance sample and a test substance sample were exposed to a human pancreatic cancer-derived cell line (PANC-1), and the survival rate of the cell 6 days later was measured by the MTS method. The measurement was performed 3 times and the average thereof was adopted. The survival rate of the cell in each test substance sample was calculated by the following formula 1 with the value at exposure of the solvent control substance sample as 100% survival rate. […]
survival rate (%)=100×absorbance of each test substance sample/absorbance of solvent control substance sample formula 1 Normalized values calculated by the following formula 2 from the absorbances of each sample at 492 nm and 630 nm and the absorbances of the blank were used as the absorbances in the above-mentioned formula 1. […]
normalized value (ABS492 nm-630 nm)=(ABSsa 492 nm-ABSsa 630 nm)−(ABSbl 492 nm-ABSbl 630 nm) ABSsa 492: absorbance of each sample at wavelength 492 nm ABSsa 630: absorbance of each sample at wavelength 630 nm ABSbl 492: absorbance of blank corresponding to each sample at wavelength 492 nm ABSbl 630: absorbance of blank corresponding to each sample at wavelength 630 nm formula 2 […]
The analysis was performed by using nplr package on R (The R Foundation for Statistical Computing) and estimating the logistic regression curve (4-parameter).

Take `CC(C)C[C@H]1ON(C(=O)/C=C/c2ccccn2)[C@H]2CN(CCC(=O)N3CCNCC3)C(=O)[C@H](CC(C)C)N2C1=O` [ID-21, (3R,6S,9aS)-3,6-diisobutyl-8-(3-oxo-3-(piperazin-1-yl)propyl)-1-((E)-3-(pyridin-2-yl)acryloyl)tetrahydropyrazino[2,1-c][1,2,4]oxadiazine-4,7 (3H, 6H)-dione]: it took 19.8 µM to reach half-maximal inhibition (IC50) and the inhibition at 30 µM was 99.5%.
Consider `CC(C)C[C@H]1ON(C(=O)/C=C/c2nn(C)c3ccccc23)[C@H]2CN(CCC(N)=O)C(=O)[C@H](CC(C)C)N2C1=O` [ID-22, 3-((3R,6S,9aS)-3,6-diisobutyl-1-((E)-3-(1-methyl-1H-indazol-3-yl)acryloyl)-4,7-dioxohexahydropyrazino[2,1-c][1,2,4]oxadiazin-8(1H)-yl)propanamide], for which the IC50 is 15.6 µM and the inhibition at 30 µM stood at 95.4%.
The matching figures for `CC(C)C[C@H]1ON(C(=O)/C=C/c2nc3ccccc3s2)[C@H]2CN(CCC(N)=O)C(=O)[C@H](CC(C)C)N2C1=O` [ID-23, 3-((3R,6S,9aS)-1-((E)-3-(benzo[d]thiazol-2-yl)acryloyl)-3,6-diisobutyl-4,7-dioxohexahydropyrazino[2,1-c][1,2,4]oxadiazin-8(1H)-yl)propanamide]: 0.77 µM and 102%.
Consider `CC(C)C[C@H]1ON(C(=O)/C=C/c2ccc3ccccc3c2)[C@H]2CN(CCC(N)=O)C(=O)[C@H](CC(C)C)N2C1=O` [ID-24, 3-((3R,6S,9aS)-3,6-diisobutyl-1-((E)-3-(naphthalen-2-yl)acryloyl)-4,7-dioxohexahydropyrazino[2,1-c] [1,2,4]oxadiazin-8(1H)-yl)propanamide], for which the concentration for half-maximal inhibition (IC50) was determined as 15.8 µM and the inhibition at 30 µM amounted to 102%.
As to `CC(C)(C)C[C@H]1C(=O)N(CC2CCCCC2)C[C@@H]2N(C(=O)/C=C/c3cnc4ccccc4n3)O[C@H](CC3CCCCC3)C(=O)N21` [ID-25, (3R,6S,9aS)-3,8-bis(cyclohexylmethyl)-6-neopentyl-1-((E)-3-(quinoxalin-2-yl)acryloyl)tetrahydropyrazino[2,1-c] [1,2,4]oxadiazine-4,7(3H,6H)-dione], the inhibition at 0.625 µM is 4.7%, the inhibition at 1 µM was 6% and the inhibition at 30 µM came out at 98.5%.
Regarding `CC(C)(C)C[C@H]1C(=O)N(CC2CCNCC2)C[C@@H]2N(C(=O)/C=C/c3cnc4ccccc4n3)O[C@H](CC3CCCCC3)C(=O)N21` [ID-26, (3R,6S,9aS)-3-(cyclohexylmethyl)-6-neopentyl-8-(piperidin-4-ylmethyl)-1-((E)-3-(quinoxalin-2-yl)acryloyl)tetrahydropyrazino[2,1-c][1,2,4]oxadiazine-4,7(3H,6H)-dione], the inhibition at 0.625 µM worked out at 4.2% and the inhibition at 1 µM is 96.1%.
For the compound `CC(C)C[C@H]1ON(C(=O)/C=C/c2ccccn2)[C@H]2CN(CCC(=O)Nc3nccs3)C(=O)[C@H](CC(C)C)N2C1=O` [ID-27, 3-((3R,6S,9aS)-3,6-diisobutyl-4,7-dioxo-1-((E)-3-(pyridin-2-yl)acryloyl)hexahydropyrazino[2,1-c][1,2,4]oxadiazin-8 (1H)-yl)—N-(thiazol-2-yl)propanamide], the IC50 stood at 8.6 µM and the inhibition at 30 µM was determined as 99.3%.
The matching figures for `CONC(=O)CCN1C[C@@H]2N(C(=O)/C=C/c3ccccn3)O[C@H](CC(C)C)C(=O)N2[C@@H](CC(C)C)C1=O` [ID-28, 3-((3R,6S,9aS)-3,6-diisobutyl-4,7-dioxo-1-((E)-3-(pyridin-2-yl)acryloyl)hexahydropyrazino[2,1-c][1,2,4]oxadiazin-8(1H)-yl)—N-methoxypropanamide]: 16.2 µM and 96.2%.
For the compound `CC(C)C[C@H]1ON(C(=O)/C=C/c2nnc(C3CC3)s2)[C@H]2CN(CCC(N)=O)C(=O)[C@H](CC(C)C)N2C1=O` [ID-29, 3-((3R,6S,9aS)-1-((E)-3-(5-cyclopropyl-1,3,4-thiadiazol-2-yl)acryloyl)-3,6-diisobutyl-4,7-dioxohexahydropyrazino[2,1-c][1,2,4]oxadiazin-8(1H)-yl)propanamide], half-maximal inhibition (IC50) required 2.3 µM and the inhibition at 10 µM is 101%.
With `CC(C)C[C@H]1ON(C(=O)/C=C/c2cccc3nccnc23)[C@H]2CN(CCC(N)=O)C(=O)[C@H](CC(C)C)N2C1=O` [ID-30, 3-((3R,6S,9aS)-3,6-diisobutyl-4,7-dioxo-1-((E)-3-(quinoxalin-5-yl)acryloyl)hexahydropyrazino[2,1-c][1,2,4]oxadiazin-8 (1H)-yl)propanamide], the inhibition at 10 µM was found to be 58.4%.
For `CC(C)C[C@H]1ON(C(=O)/C=C/c2ccc3cccnc3n2)[C@H]2CN(CCC(N)=O)C(=O)[C@H](CC(C)C)N2C1=O` [ID-31, 3-((3R,6S,9aS)-1-((E)-3-(1,8-naphthyridin-2-yl)acryloyl)-3,6-diisobutyl-4,7-dioxohexahydropyrazino[2,1-c][1,2,4]oxadiazin-8(1H)-yl)propanamide], the half-maximal inhibitory concentration (IC50) was 2.7 µM and the inhibition at 10 µM amounted to 99.3%.
The matching figures for `CC(C)C[C@H]1ON(C(=O)/C=C/c2nc3cccnc3s2)[C@H]2CN(CCC(N)=O)C(=O)[C@H](CC(C)C)N2C1=O` [ID-32, 3-((3R,6S,9aS)-3,6-diisobutyl-4,7-dioxo-1-((E)-3-(thiazolo[5,4-b]pyridin-2-yl)acryloyl)hexahydropyrazino[2,1-c][1,2,4]oxadiazin-8(1H)-yl)propanamide]: 0.62 µM and 101%.
The matching figures for `CCOC(=O)c1cnc(/C=C/C(=O)N2O[C@H](CC(C)C)C(=O)N3[C@@H]2CN(CCC(N)=O)C(=O)[C@@H]3CC(C)C)s1` [ID-33, ethyl 2-((E)-3-((3R,6S,9aS)-8-(3-amino-3-oxopropyl)-3,6-diisobutyl-4,7-dioxohexahydropyrazino[2,1-c][1,2,4]oxadiazin-1(6H)-yl)-3-oxoprop-1-en-1-yl)thiazole-5-carboxylate]: 1.1 µM and 99.9%.
In the case of `Cc1nc(/C=C/C(=O)N2O[C@H](CC(C)C)C(=O)N3[C@@H]2CN(CCC(N)=O)C(=O)[C@@H]3CC(C)C)sc1C` [ID-34, 3-((3R,6S,9aS)-1-((E)-3-(4,5-dimethylthiazol-2-yl)acryloyl)-3,6-diisobutyl-4,7-dioxohexahydropyrazino[2,1-c][1,2,4]oxadiazin-8(1H)-yl)propanamide], inhibition was half-maximal at 2.6 µM (IC50) and the inhibition at 10 µM came out at 95.5%.
For `CC(C)C[C@H]1CN(CCCN(C)C2CCN(C)CC2)C[C@@H]2N(C(=O)/C=C/c3ccccn3)O[C@H](CC(C)C)C(=O)N12` [ID-35, (3R,6S,9aS)-3,6-diisobutyl-8-(3-(methyl(1-methylpiperidin-4-yl)amino)propyl)-1-((E)-3-(pyridin-2-yl)acryloyl)hexahydropyrazino[2,1-c][1,2,4]oxadiazin-4(3H)-one], the IC50 worked out at 5 µM and the inhibition at 10 µM amounted to 99%.
`CC(C)C[C@H]1ON(C(=O)/C=C/c2ccccn2)[C@H]2CN(C3CCN(Cc4ncccn4)CC3)C(=O)[C@H](CC(C)C)N2C1=O` [ID-36, (3R,6S,9aS)-3,6-diisobutyl-1-((E)-3-(pyridin-2-yl)acryloyl)-8-(1-(pyrimidin-2-ylmethyl)piperidin-4-yl)tetrahydropyrazino[2,1-c][1,2,4]oxadiazine-4,7(3H,6H)-dione]: the inhibition at 10 µM amounted to 76%.
As to `CC(C)C[C@H]1ON(C(=O)/C=C/c2nc3c(s2)CCCC3)[C@H]2CN(CCC(N)=O)C(=O)[C@H](CC(C)C)N2C1=O` [ID-37, 3-((3R,6S,9aS)-3,6-diisobutyl-4,7-dioxo-1-((E)-3-(4,5,6,7-tetrahydrobenzo[d]thiazol-2-yl)acryloyl)hexahydropyrazino[2,1-c][1,2,4]oxadiazin-8 (1H)-yl)propanamide], 4.7 µM corresponded to half-maximal inhibition (IC50) and the inhibition at 10 µM turned out to be 95.8%.
For `CC(C)C[C@H]1ON(C(=O)/C=C\c2ccccc2)[C@H]2CN(C3CCN(C)CC3)C(=O)[C@H](CC(C)C)N2C1=O` [ID-38, (3R,6S,9aS)-3,6-diisobutyl-8-(1-methylpiperidin-4-yl)-1-((Z)-3-phenylacryloyl)tetrahydropyrazino[2,1-c] [1,2,4] oxadiazine-4,7 (3H, 6H)-dione] the same measures were 8 µM and 82.6%.
In the case of `CC(C)C[C@H]1ON(C(=O)/C=C/c2ccccc2)[C@H]2CN(C3CCN(C)CC3)C(=O)[C@H](CC(C)C)N2C1=O` [ID-39, (3R,6S,9aS)-1-cinnamoyl-3,6-diisobutyl-8-(1-methylpiperidin-4-yl)tetrahydropyrazino[2,1-c][1,2,4]oxadiazine-4,7 (3H, 6H)-dione], the half-inhibitory concentration (IC50) amounted to 8.9 µM and the inhibition at 10 µM amounted to 80.8%.
